{"source": "patent US11071768B2", "about": "“Caspofungin compositions for inhalation” (TRILOGY THERAPEUTICS, INC., priority 2018, dated 2021)", "key": {"Aspergillus nidulans": {"system": "Aspergillus nidulans", "details": "cited from earlier work"}, "[1]": {"experiment": "Toxicology observations in the rat pharmacokinetic study", "format": "in vivo", "details": "male rats, nose-only inhalation or intravenous injection", "experimental": "A detailed, hand-held physical examination was conducted on all animals once during the quarantine period (prior to randomization). During the treatment period, the animals were observed daily for mortality or evidence of moribundity; these checks were separated by a minimum of four hours. Daily cage-side clinical observations were conducted during exposure, and daily hand-held clinical observations were conducted before and after exposure. Observations included, but were not limited to the following: changes in the skin and fur, eyes, and mucous membranes; effects on the respiratory, circulatory, autonomic and central nervous systems; and effects on somatomotor activity and behavior pattern.\nBody Weights and Body Weight Changes: Body weights were determined one day after animal receipt; at randomization; and prior to exposure on Study Day 1, 2, 3 and 7 (as applicable based on scheduled euthanization).\nPlasma and Tissue Samples/Necropsy: Whole blood samples were collected from three animals per time-point at approximately 0.5, 1, 2, 4, 8, 12, 24 and 48 hours and 7 days after dose administration for plasma drug level determination. Rats were anesthetized with 70% CO2/30% air and blood was collected from the retro-orbital plexus and placed into tubes containing anticoagulant (EDTA). Blood samples were placed on ice immediately following collection and processed (i.e., centrifuged) to plasma. The samples were then stored frozen (at approximately −70° C.) until analyzed. All study animals surviving to scheduled necropsy were euthanized by an overdose of an intraperitoneal injection of sodium pentobarbital at […]. Tissue specimens (lung, liver and kidney) were collected from three animals per time point at 0.5, 2, 24 and 48 hours and 7 days after dose administration. All tissue specimens were stored frozen at approximately −70° C. until analyzed."}, "All Candida spp.": {"system": "All Candida spp.", "details": "All Candida spp., 5,346 isolates; cited from earlier work"}, "Aspergillus terrus": {"system": "Aspergillus terrus", "details": "cited from earlier work"}, "[2]": {"details": "2 mg/kg, cited from earlier work"}, "Candida glabrata": {"system": "Candida glabrata", "details": "747 isolates; cited from earlier work"}, "Candida guilliermondii": {"system": "Candida guilliermondii", "details": "61 isolates; cited from earlier work"}, "Aspergillus niger": {"system": "Aspergillus niger", "details": "cited from earlier work"}, "Aspergillus fumigatus": {"system": "Aspergillus fumigatus", "details": "cited from earlier work"}, "Aspergillus versicolor": {"system": "Aspergillus versicolor", "details": "75 isolates; cited from earlier work"}, "Candida tropicalis": {"system": "Candida tropicalis", "details": "625 isolates; cited from earlier work"}, "Candida albicans": {"system": "Candida albicans", "details": "2869 isolates; cited from earlier work"}, "Aspergillus flavus": {"system": "Aspergillus flavus", "details": "cited from earlier work"}, "Candida krusei": {"system": "Candida krusei", "details": "136 isolates; cited from earlier work"}, "Candida parapsilosis": {"system": "Candida parapsilosis", "details": "759 isolates; cited from earlier work"}}, "note": "Read-outs that look alike come from different tables or passages of the source."}
{"smiles": "CC[C@H](C)C[C@H](C)CCCCCCCCC(=O)N[C@H]1C[C@@H](O)[C@@H](NCCN)NC(=O)[C@@H]2[C@@H](O)CCN2C(=O)[C@H]([C@H](O)CCN)NC(=O)[C@H]([C@H](O)[C@@H](O)c2ccc(O)cc2)NC(=O)[C@@H]2C[C@@H](O)CN2C(=O)[C@H]([C@@H](C)O)NC1=O", "note": "[caspofungin]", "values": [{"measurement": "MIC90 Average (Geometric Mean MIC)", "setting": "Aspergillus nidulans; 13 isolates", "value": 0.44, "unit": "µg/mL"}, {"measurement": "MIC90 Range", "setting": "Aspergillus nidulans; 13 isolates", "value": "0.2 to 4", "unit": "µg/mL"}, {"measurement": "MEC Average (Mode)", "setting": "Aspergillus nidulans; 192 isolates", "value": 0.12, "unit": "µg/mL"}, {"measurement": "MEC Range", "setting": "Aspergillus nidulans; 192 isolates", "value": "0.032 to 16", "unit": "µg/mL"}, {"measurement": "Clinical signs of toxicity", "setting": "[1]", "value": "no clinical signs of toxicity"}, {"measurement": "Effects on body weight", "setting": "[1]", "value": "no effects on body weight"}, {"measurement": "Gross necropsy findings", "setting": "[1]", "value": "no gross necropsy findings"}, {"measurement": "Mortality", "setting": "[1]", "value": "no test-article related mortality"}, {"measurement": "MIC90", "setting": "All Candida spp.", "value": 0.25, "unit": "µg/mL"}, {"measurement": "MIC90 Average (Geometric Mean MIC)", "setting": "Aspergillus terrus; 11 isolates", "value": 0.12, "unit": "µg/mL"}, {"measurement": "MIC90 Range", "setting": "Aspergillus terrus; 11 isolates", "value": "0.06 to .2 µg/mL"}, {"measurement": "MEC Average (Mode)", "setting": "Aspergillus terrus; 385 isolates", "value": 0.06, "unit": "µg/mL"}, {"measurement": "MEC Range", "setting": "Aspergillus terrus; 385 isolates", "value": "0.016 to 2", "unit": "µg/mL"}, {"measurement": "Kidney concentration, radiolabeled compound (Stone 2004)", "setting": "[2]; 0.5 h", "value": 9.15, "unit": "µg/g"}, {"measurement": "Kidney concentration, radiolabeled compound (Stone 2004)", "setting": "[2]; 2 h", "value": 10.60, "unit": "µg/g"}, {"measurement": "Kidney concentration, radiolabeled compound (Stone 2004)", "setting": "[2]; 24 h", "value": 11.40, "unit": "µg/g"}, {"measurement": "MIC90", "setting": "Candida glabrata", "value": 0.06, "unit": "µg/mL"}, {"measurement": "MIC90", "setting": "Candida guilliermondii", "value": 1, "unit": "µg/mL"}, {"measurement": "MIC90 Average (Geometric Mean MIC)", "setting": "Aspergillus niger; 10 isolates", "value": 0.14, "unit": "µg/mL"}, {"measurement": "MIC90 Range", "setting": "Aspergillus niger; 10 isolates", "value": "0.06 to 0.5", "unit": "µg/mL"}, {"measurement": "MEC Average (Mode)", "setting": "Aspergillus niger; 440 isolates", "value": 0.06, "unit": "µg/mL"}, {"measurement": "MEC Range", "setting": "Aspergillus niger; 440 isolates", "value": "0.016 to 2", "unit": "µg/mL"}, {"measurement": "MIC90 Average (Geometric Mean MIC)", "setting": "Aspergillus fumigatus; 56 isolates", "value": 0.25, "unit": "µg/mL"}, {"measurement": "MIC90 Range", "setting": "Aspergillus fumigatus; 56 isolates", "value": "0.12 to 4", "unit": "µg/mL"}, {"measurement": "MEC Average (Mode)", "setting": "Aspergillus fumigatus; 1691 isolates", "value": 0.25, "unit": "µg/mL"}, {"measurement": "MEC Range", "setting": "Aspergillus fumigatus; 1691 isolates", "value": "0.016 to 32", "unit": "µg/mL"}, {"measurement": "MEC Average (Mode)", "setting": "Aspergillus versicolor", "value": 0.12, "unit": "µg/mL"}, {"measurement": "MEC Range", "setting": "Aspergillus versicolor", "value": "0.032 to 2", "unit": "µg/mL"}, {"measurement": "MIC90", "setting": "Candida tropicalis", "value": 0.06, "unit": "µg/mL"}, {"measurement": "MIC90", "setting": "Candida albicans", "value": 0.06, "unit": "µg/mL"}, {"measurement": "MIC90 Average (Geometric Mean MIC)", "setting": "Aspergillus flavus; 13 isolates", "value": 0.2, "unit": "µg/mL"}, {"measurement": "MIC90 Range", "setting": "Aspergillus flavus; 13 isolates", "value": "0.06 to 2", "unit": "µg/mL"}, {"measurement": "MEC Average (Mode)", "setting": "Aspergillus flavus; 432 isolates", "value": 0.06, "unit": "µg/mL"}, {"measurement": "MEC Range", "setting": "Aspergillus flavus; 432 isolates", "value": "0.016 to 32", "unit": "µg/mL"}, {"measurement": "MIC90", "setting": "Candida krusei", "value": 0.25, "unit": "µg/mL"}, {"measurement": "MIC90", "setting": "Candida parapsilosis", "value": 1, "unit": "µg/mL"}]}
